The test system of one assay is SKBR3 cells. The assay is described as follows: SKBR3 growth assay (sulphorhodamine B). In kind it is cell-based. The following applies: Homo sapiens, SK-BR-3, 96 h; Table V; 4 days, SRB; read-out: Estimated IC50 Growth Assays SKBR3 cells. The source says: (§1) This example illustrates the ability of the exemplary compounds to inhibit receptor tyrosine kinases, such as HER2 and/or EGFR. The following target cells were used for cellular kinaseassays: NIH3T3 clone C7 (Honegger et al., supra) engineered to over-express human EGF receptor; NIH3T3 cells engineered to over-express a chimeric receptor containing the EGFR extracellular domain and the HER2 intracellular kinase domain; the human mammary carcinoma line BT474 (ATCC HTB2) expressing HER2; and the human glioblastoma line U1242 that expresses PDGFR-β. Growth assays were carried out using human mammary epithelial SKBR3 (ATCC HTB30) cells, SKOV3 (ATCC HTB77) human ovarian cancer cell line, A431 cells, MCF7 human breast carcinoma cells, MCF7 cells overexpress the HER2 kinase (MCF7-HER2), NIH3T3 cells, and NIH3T3 cells overexpressing the HER2 kinase (3T3-HER2).
SKBR3 cells over-express HER2. A431 cells over-express EGFR. These cells were dispensed into 96-well plates with test compounds. After 4 days the monolayers were TCA-fixed then stained with sulphorhodamine B. The absorbance versus log drug concentration was plotted and IC50 values estimated.
(4) Tris, crystallized free base—Fisher Catalog #BP152 Working solution: 10 mM tris=1.211 gram Trizma base/liter H2O.
(5) Aspirate growth media from 96 well plate containing control cells or cell treated with compounds, rinse wells 2 or 3 times with PBS and layer 200 μl cold 10% TCA onto each well. Fix cells for 60 minutes at 4° C.
(6) Discard TCA and rinse wells 5 times with distilled H2O. Dry plate upside down on paper towel.
(7) Stain fixed cells for 10 minutes with 100 μl 0.4% SRB per well.
(8) Pour off SRB solution and rinse wells 5 times with 1% acetic acid.
(9) Dry plate upside down on paper towel.
(10) After wells are completely dry, solubilize dye with 100 μl 10 mM Tris base per well for 5-10 minutes on titer plate shaker.
(11) Read optical density at dual wavelength mode 570 nm and 630 nm on Dynatech ELISA plate reader, Model MR 5000.

A further assay concerns SKOV3 cells. The assay is described as follows: SKOV3 soft agar colony growth assay. In kind it is cell-based. The following applies: Homo sapiens, SK-OV-3, 336 h, Table V, colony growth 2 weeks, read-out: Estimated IC50 Growth Assays SKOV3 cells.
Source text: as §1
SKOV3 cells also over-express HER2. These cells were plated into soft agar with a test compound and colony growth was quantified 2 weeks. later using an Omnicon colony counter.
6. Soft Agar Assay Protocol
The soft agar assay is well known in the art as a method for measuring the effects of substances on cell growth. Unless otherwise stated the soft agar assays were carried out as follows:
(1) A Water bath set at 39° C. and another water bath at 37° C.
(2) 2×assay medium is comprised of 2×Dulbecco's Modified Eagle's Medium (DMEM) (Gibco Cat. #CA400-4ANO3) supplemented by the following:
20% Fetal Bovine Serum (FBS)
Non-essential Amino Acids (1:50 from 100×stock)
(3) 1×assay medium made of 1×DMEM supplemented with 10% FBS, 1 mM sodium pyruvate, 2 mM glutamine, 10 mM HEPES, non-essential amino acid (1:100 from 100×stock).
(4) 1.6% SeaPlaque Agarose in autoclave bottle
(5) Sterile 35 mm Corning plates (FMC Bioproducts Cat. #50102)
(6) Sterile 5 ml glass pipets (individually wrapped)
(7) Sterile 15 ml and 50 ml conical centrifuge tubes
(8) Pipets and sterile tips
(9) Sterile microcentrifuge tubes
(10) Cells in T75 flasks: SKOV-3 (ACTT HTB77).
(12) Procedure for making the base layer:
(a) Have all the media warmed up in the 37° C. water bath.
(b) To make 1×of assay medium+0.8% agar: make a 1:2 (vol:vol) dilution of melted agar (cooled to 39° C.), with 2×assay medium.
(c) Keep all media with agar warm in the 39° C. water bath when not in use.
(d) Dispense 1 ml of 1×assay medium+0.8% agar into dishes and gently swirl plate to form a uniform base layer. Bubbles should be avoided.
(e) Refrigerate base layers to solidify (about 20 minutes). Base layers can be stored overnight in the refrigerator.
(13) Procedure for collecting cells:
(a) Take out one flask per cell line from the incubator; aspirate off medium; wash once with PBS and aspirate off; add 3 ml of trypsin solution. […]
(d) Colonies that are 60 microns and larger are scored positive.

Take `CC(C)(C)c1cc(/C=C(\C#N)C(N)=S)cc(C(C)(C)C)c1O` [Compound M11]: the IC50 (as a rule, the concentration that gives 50% inhibition) is 4 µM in the assay on SKBR3 cells and 0.5 µM in the assay on SKOV3 cells.
On to `N#C/C(=C\c1ccc(O)c(O)c1)C(=S)NCc1ccccc1` [Compound M13], for which the IC50 with SKBR3 cells was 25 µM; with SKOV3 cells it was 20 µM.
On to `N#C/C(=C\c1ccc(O)c(O)c1)C(=O)Nc1cccc(C(F)(F)F)c1` [Compound M15], for which the results for the half-inhibitory concentration (IC50) in the assay on SKBR3 cells and with SKOV3 cells were 20 µM and 17 µM, respectively.
On to `N#C/C(=C\c1cc(O)c(O)c(I)c1)C(=O)NCCCc1ccccc1` [Compound M16], for which the results for the 50% inhibitory concentration (IC50) in the assay with SKBR3 cells and in the assay on SKOV3 cells were 9 µM and 4.5 µM, respectively.

These data come from US6596878B2, “Methods and compositions for inhibiting cell proliferative disorders” (Yissum Research & Development Company of the Hebrew …, priority 1994, dated 2003).
